Species on record: Homo sapiens
Assay: Concentration required for maximal in vitro inhibition of aggregation of human platelet rich plasma (hPRP)
Assay type: functional
Conditions: not given

| Structure (SMILES) | IC50 [nM] |
| --- | --- |
| CCCCNC(=N)c1ccc(C2=NO[C@@H](CC(=O)NC[C@H](NC(=O)OCCCC)C(=O)O)C2)cc1 | 62 |
| Cc1cccc(S(=O)(=O)N[C@@H](CNC(=O)C[C@H]2CC(c3ccc(C(=N)N)cc3)=NO2)C(=O)O)c1 | 50 |
| Cc1noc(C)c1S(=O)(=O)N[C@@H](CNC(=O)C[C@H]1CC(c2ccc(C(=N)NCc3cccc(F)c3)cc2)=NO1)C(=O)O | 55 |
| COc1ccccc1CNC(=N)c1ccc(C2=NO[C@@H](CC(=O)NC[C@H](NS(=O)(=O)c3c(C)noc3C)C(=O)O)C2)cc1 | 55 |
| CCCCNC(=N)c1ccc(C2=NOC(CC(=O)NCCC(=O)O)C2)cc1 (centres undefined) | 20 |
| N/C(=N/Cc1cccc(F)c1)c1ccc(C2=NOC(CC(=O)NCCC(=O)O)C2)cc1 (centres undefined) | 12 |
| N/C(=N/Cc1ccccc1)c1ccc(C2=NOC(CC(=O)NCCC(=O)O)C2)cc1 (centres undefined) | 200 |

Further lines, results first:

| IC50 [nM] | Structure (SMILES) |
| --- | --- |
| 300 | CCCCCNC(=N)c1ccc(C2=NOC(CC(=O)NCCC(=O)O)C2)cc1 (centres undefined) |
| 60 | N=C(N)c1ccc(C2=NO[C@@H](CC(=O)NCCC(=O)O)C2)cc1 |
| 43 | CCNC(=N)c1ccc(C2=NO[C@@H](CC(=O)NC[C@H](NS(=O)(=O)c3ccccc3C)C(=O)O)C2)cc1 |
| 87 | N/C(=N/Cc1ccccc1)c1ccc(C2=NO[C@@H](CC(=O)NCCC(=O)O)C2)cc1 |
| 40 | COc1ccccc1CNC(=N)c1ccc(C2=NO[C@@H](CC(=O)NC[C@H](NS(=O)(=O)c3ccccc3C)C(=O)O)C2)cc1 |
| 54 | Cc1ccccc1S(=O)(=O)N[C@@H](CNC(=O)C[C@H]1CC(c2ccc(C(=N)N)cc2)=NO1)C(=O)O |
| 16 | CCCCNC(=N)c1ccc(C2=NO[C@@H](CC(=O)NC[C@H](NS(=O)(=O)c3ccccc3C)C(=O)O)C2)cc1 |
| 240 | N=C(N)c1ccc(C2=NOC(CC(=O)NCCC(=O)O)C2)cc1 (centres undefined) |
| 32 | COc1ccccc1CNC(=N)c1ccc(C2=NOC(CC(=O)NCCC(=O)O)C2)cc1 (centres undefined) |
| 1300 | CC(C)CCNC(=N)c1ccc(C2=NOC(CC(=O)NCCC(=O)O)C2)cc1 (centres undefined) |
| 120 | CCCNC(=N)c1ccc(C2=NOC(CC(=O)NCCC(=O)O)C2)cc1 (centres undefined) |
| 51 | CCNC(=N)c1ccc(C2=NO[C@@H](CC(=O)NC[C@H](NS(=O)(=O)c3cccc(C)c3)C(=O)O)C2)cc1 |
| 82 | CCCCOC(=O)N[C@@H](CNC(=O)C[C@H]1CC(c2ccc(C(=N)NCC)cc2)=NO1)C(=O)O |

Tested on: Canis familiaris
Assay: Percent inhibition of aggregation of platelet rich plasma at a dose of 0.025 mg/kg, iv, in canine model after 30 min
Assay type: functional
Conditions: Canis lupus familiaris, 0.5 h

| Structure (SMILES) | inhibition in vivo at 0.025 mg/kg [%] |
| --- | --- |
| CCNC(=N)c1ccc(C2=NOC(CC(=O)NCCC(=O)O)C2)cc1 (centres undefined) | 70 |

Tested on: Canis familiaris
Assay: Percent inhibition of aggregation of platelet rich plasma at a dose of 0.025 mg/kg, iv, in canine model at 24 hr
Assay type: functional
Conditions: Canis lupus familiaris

| Structure (SMILES) | inhibition in vivo at 0.025 mg/kg [%] |
| --- | --- |
| COc1ccccc1CNC(=N)c1ccc(C2=NO[C@@H](CC(=O)NC[C@H](NS(=O)(=O)c3ccccc3C)C(=O)O)C2)cc1 | 80 |

Tested on: Canis familiaris
Assay: Percent inhibition of aggregation of platelet rich plasma at a dose of 0.025 mg/kg, iv, in canine model at 5 hrs
Assay type: functional
Conditions: Canis lupus familiaris

| Structure (SMILES) | inhibition in vivo at 0.025 mg/kg [%] |
| --- | --- |
| CCNC(=N)c1ccc(C2=NOC(CC(=O)NCCC(=O)O)C2)cc1 (centres undefined) | 20 |

Tested on: Canis familiaris
Assay: Percent inhibition of ex vivo platelet aggregation of rich plasma at a dose of 0.025 mg/kg, iv, in canine model at 5 hrs
Assay type: functional
Conditions: Canis lupus familiaris

| Structure (SMILES) | inhibition in vivo at 0.025 mg/kg [%] |
| --- | --- |
| CCNC(=N)c1ccc(C2=NO[C@@H](CC(=O)NC[C@H](NS(=O)(=O)c3ccccc3C)C(=O)O)C2)cc1 | 40 |

Reference: ChEMBL document CHEMBL1133917, “Synthesis and pharmacology of modified amidine isoxazoline glycoprotein IIb/IIIa receptor antagonists” (Bioorg Med Chem Lett, 2001)
